{"source": "patent US6124136A", "about": "“Method of monitoring compliance with methadone treatment program” (U. D. Testing, Inc., priority 1993, dated 2000)", "key": {"[1]": {"assay": "Clinical course of migraine/headache in chronic pain patients (Cases #1 and #2)", "assay_type": "in vivo, human"}, "[2]": {"system": "mu-receptor subfamily of opioid cell membrane binding/transduction sites", "conditions": "cited from earlier work"}, "[3]": {"assay": "Urinary parameter-normalized urine methadone concentration, nu"}, "[4]": {"assay": "Renal clearance / renal excretion of methadone from timed urine collections", "conditions": "as a function of urine volume production rate; 12 control subjects"}, "[5]": {"assay": "Plasma methadone concentration, p, calculated from spot urine (urine methadone, pH and specific gravity)", "conditions": "patient one, Tables 3 and 4, barbiturate-containing compounds discontinued"}, "[6]": {"assay": "Plasma methadone concentration versus daily oral methadone dose (FIG. 6, 8300 urine samples from 150 patients)", "conditions": "human, 70 mg/day"}}, "note": "“And” between values parts separate entries of the source, which are not always exact repeats. Identical values can stand only once.", "data": [{"smiles": "Oc1ccc2c3c1O[C@H]1[C@@H](O)CC[C@@]4(O)[C@@H](C2)N(CC2CCC2)CC[C@]314", "note": "[nalbuphine]", "values": [{"measurement": "control of pain", "setting": "[1]; patient one, self-administered IM, before methadone", "result": "failure"}]}, {"smiles": "CCC(=O)C(CC(C)N(C)C)(c1ccccc1)c1ccccc1", "note": "(centres unmarked) [methadone]", "values": [{"measurement": "stress-related headaches", "setting": "[1]; patient one, 130 mg per day", "result": "slowly decreasing in severity and frequency"}, {"measurement": "migraines", "setting": "[1]; patient one, stabilized on 130 mg per day, plasma level above 135 ng/ml", "result": "ceased completely"}, {"measurement": "migraine frequency and severity", "setting": "[1]; patient two, gradual titration to 35 mg of methadone", "result": "slowly decayed in frequency and severity"}, {"measurement": "action at mu-receptor", "setting": "[2]", "result": "potent, and nearly pure (no interfering metabolites), agonist"}, {"measurement": "urinary parameter-normalized urine methadone concentration, nu", "setting": "[3]; Table 1, compliant patient, dose 60", "result": "7448 and 9473"}, {"measurement": "urinary parameter-normalized urine methadone concentration, nu, mean", "setting": "[3]; Table 1, mean of 12 tests, dose 60-70", "result": 7427}, {"measurement": "urinary parameter-normalized urine methadone concentration, nu, mean", "setting": "[3]; Table 2, patient two, mean of 12 tests, dose 45", "result": 17936}, {"measurement": "urinary parameter-normalized urine methadone concentration, nu", "setting": "[3]; Table 3, patient one (prior barbiturate use), 1991, dose 50", "result": 2924}, {"measurement": "urinary parameter-normalized urine methadone concentration, nu", "setting": "[3]; Table 3, patient one (prior barbiturate use), 1991, dose 65", "result": "1367 and 911"}, {"measurement": "urinary parameter-normalized urine methadone concentration, nu", "setting": "[3]; Table 3, patient one (prior barbiturate use), 1991, dose 80", "result": 1070}, {"measurement": "urinary parameter-normalized urine methadone concentration, nu, mean", "setting": "[3]; Table 3, patient one, mean of 12 tests, dose 40-100", "result": 1591}, {"measurement": "urinary parameter-normalized urine methadone concentration, nu", "setting": "[3]; Table 4, patient one, barbiturates discontinued, 1992, dose 110", "result": "6580 and 6703 and 10880 and 6025"}, {"measurement": "urinary parameter-normalized urine methadone concentration, nu", "setting": "[3]; Table 4, patient one, barbiturates discontinued, 1992, dose 120", "result": "8970 and 6778 and 8074 and 11966 and 6031"}, {"measurement": "urinary parameter-normalized urine methadone concentration, nu", "setting": "[3]; Table 4, patient one, barbiturates discontinued, 1992, dose 130", "result": "7728 and 5944 and 5117"}, {"measurement": "urinary parameter-normalized urine methadone concentration, nu, mean", "setting": "[3]; Table 4, patient one, mean of 12 tests, dose 110-130", "result": 7566}, {"measurement": "urinary parameter-normalized urine methadone concentration, nu, mean", "setting": "[3]; Table 6, Case #4, mean, dose 120-140", "result": 6874}, {"measurement": "Pred (flag: nu outside acceptable statistical range)", "setting": "[3]; Table 6, Case #4, dose 140", "result": "High"}, {"measurement": "urinary parameter-normalized urine methadone concentration, nu, mean", "setting": "[3]; Table 7, Case #5, mean of 13 tests, dose 130", "result": 14502}, {"measurement": "Pred (flag: nu outside acceptable statistical range)", "setting": "[3]; Table 7, Case #5, dose 130", "result": "LOW and HIGH"}, {"measurement": "renal excretion rate during a typical day", "setting": "[4]", "result": "relatively constant"}, {"measurement": "plasma methadone levels over time", "setting": "[5]", "result": "increased in this patient over time"}, {"measurement": "concentration at 24 h", "setting": "[6]", "result": 200, "unit": "ng/mL"}]}]}
